We go through 1 compound from US8436004B2, “Bicycloaniline derivative” (MSD K.K., priority 2007, dated 2013).

In this assay the test system is Human colon cancer cells WiDr. The experiment in a line: Tumor growth inhibitory effect, WiDr subcutaneous xenograft in nude rats. The format is in vivo, F344/N Jcl-rnu nude rats. As to the method: Pharmacological Test 4 (Tumor Growth Inhibitory Effect)
Human colon cancer cells WiDr (obtained from ATCC) were implanted into the subcutaneous area of the back of F344/N Jcl-rnu nude rats. 12 days after the implantation, 5 mg/kg of gemcitabine (Gemzar, from Eli Lily) was intravenously administered to them; and after 24 hours, a test compound suspended in a solvent (0.5% methyl cellulose) was orally administered thereto. This was repeated once a week for 3 weeks. The tumor volume (0.5×major diameter×(minor diameter)^2) was measured on days 0, 3, 6, 10, 13, 17, 20, 24 and 27 (the first gemcitabine administration is on day 0). The relative tumor volume was calculated, based on the tumor volume on day 0, as 1. The tumor growth rate (% T/C) was obtained according to the formulae mentioned below.
In case where the tumor volume change from day 0 in the test compound administration group is more than 0 (>0): % T/C=(tumor volume change in the test compound group on days 3, 6, 10, 13, 17, 20, 24 and 27/tumor volume change in the control group on days 3, 6, 10, 13, 17, 20, 24 and 27)×100. In case where the tumor volume change from day 0 in the test compound administration group is less than 0 (<0): % T/C=(tumor volume change in the test compound group on days 3, 6, 10, 13, 17, 20, 24 and 27/tumor volume […] in the test compound group on day 0)×100.
Gemcitabine was administered on days 0, 7 and 14. The compound of Example 1 was administered on days 1, 8 and 15.

Take `Nc1ccn([C@@H]2O[C@H](CO)[C@@H](O)C2(F)F)c(=O)n1` [Gemcitabine, gemcitabine]: the “% T/C day 3” value (day 3, gemcitabine 5 mg/kg i.v. days 0, 7, 14, Example 1 15 mg/kg oral days 1, 8, 15, n=5) amounted to 62%. For the same compound, the “% T/C day 6” value (day 6, gemcitabine 5 mg/kg i.v. days 0, 7, 14, Example 1 15 mg/kg oral days 1, 8, 15, n=5) stood at 67%. In addition, the “% T/C day 10” value (day 10, gemcitabine 5 mg/kg i.v. days 0, 7, 14, Example 1 15 mg/kg oral days 1, 8, 15, n=5) is given as 66%. For the setting “day 13, gemcitabine 5 mg/kg i.v. days 0, 7, 14, Example 1 15 mg/kg oral days 1, 8, 15, n=5”, the “% T/C day 13” value turned out to be 64%. Also, the “% T/C day 17” value (day 17, gemcitabine 5 mg/kg i.v. days 0, 7, 14, Example 1 15 mg/kg oral days 1, 8, 15, n=5) was determined as 57%. For the setting “day 20, gemcitabine 5 mg/kg i.v. days 0, 7, 14, Example 1 15 mg/kg oral days 1, 8, 15, n=5”, the “% T/C day 20” value amounted to 49%. Under “day 24, gemcitabine 5 mg/kg i.v. days 0, 7, 14, Example 1 15 mg/kg oral days 1, 8, 15, n=5”, the “% T/C day 24” value is recorded as 52%. Besides, the “% T/C day 27” value (day 27, gemcitabine 5 mg/kg i.v. days 0, 7, 14, Example 1 15 mg/kg oral days 1, 8, 15, n=5) is 54%. For the same compound, the “tumor growth rate, result in words” value (summary of Table 5) was “reduced the tumor growth rate”.
